Measured values from paper PMC11764660, “Self-Assembled Peptide Hydrogels PPI45 and PPI47: Novel Drug Candidates for Staphylococcus aureus Infection Treatment” (Gels, 2025).

Key:
Format in all cases: cell-based, Staphylococcus aureus
S. aureus ATCC43300 [1] = experiment: Cell membrane integrity analysis (PI, flow cytometry); conditions: 2×MIC, 37 °C, 10^8 CFU/mL
Protocol: The solution was incubated at 37 °C for 0.5, 1, 1.5, and 2 h, respectively, and 0.01 M PBS (pH 7.4) was used as a blank control. After the incubation periods, each sample was centrifugated at 4000 rpm for 5 min. Subsequently, 400 µL of the supernatant was removed, and 400 µL of sterile PBS was added. The samples were washed twice and then resuspended with PBS to a final volume of 450 µL. A 50 µL volume of PI staining solution (500 µg/mL) was added, and the samples were incubated for 15 min in the dark. Finally, the cells fixed with PI were analyzed using flow cytometry.

S. aureus ATCC 43300 [2] = experiment: PAE assay; conditions: 2×MIC, 2 h exposure of 10^8 CFU/mL at 37 °C, 1000-fold dilution; time for tenfold increase of the colony count
Protocol: The mixture was subsequently incubated for 2 h at 37 °C and 250 rpm. Upon completion of the incubation period, 50 µL of the solution was withdrawn and diluted 1000-fold by adding […] of pre-warmed MHB, which was designated as the 0 h time point. Subsequently, samples were collected at 0, 0.5, 1, 2, 4, 6, 8, 10, 12, and 24 h. Each sample was subjected to 10-fold serial dilutions before being plated, and colony counts were performed. PBS served as the negative control. The time required for the colony count in each treatment group to increase tenfold relative to the post-reconstruction baseline was determined as PAE.

S. aureus ATCC43300 [3] = experiment: SEM observation of bacterial morphology; conditions: 2×MIC, 2 h, 37 °C, 10^8 CFU/mL
Protocol: This mixture was incubated at 37 °C for 2 h. The 0.01 M PBS (pH 7.4) served as the blank control. After being centrifugated at 4000 rpm for 5 min, the samples were carefully washed three times with 0.01 M PBS. Next, 1 mL of 2.5% glutaraldehyde was added to each sample and stored at 4 °C overnight. The samples were washed twice with distilled water and subsequently dehydrated through a series of ethanol solutions (50%, 70%, 85%, 95%, and 100%). Each sample received three treatments with 100% ethanol, followed by drying at the CO2 critical point, gold sputtering, and observation under a scanning electron microscope.

S. aureus ATCC 43300 [4] = experiment: Time-dependent bactericidal kinetic curve (time-kill); conditions: 2× MIC, S. aureus ATCC 43300, start 1×10^5 CFU/mL, 37 °C, 250 rpm
Protocol: The mixture was subsequently incubated in a shaker at 37 °C and 250 rpm. At predetermined intervals (0, 0.5, 1, 2, 4, 6, 10, 22, and 24 h), 100 μL aliquots were withdrawn and subjected to serial 10-fold dilutions before being plated for colony counting.

S. aureus ATCC 43300 [5] = experiment: Membrane potential (DiSC3(5)); conditions: DiSC3(5) fluorescence, 1×, 2×, 4× MIC, 30 min, 37 °C, three replicates
Protocol: The fluorescent probe DiSC3(5) (0.5 mM) was co-incubated with PBS (10^8 CFU/mL) of S. aureus for 30 min at 37 °C. A total of 180 µL of bacteria carrying fluorescent probes and 20 µL of peptide solution at varying concentrations were added to 96-well plates and incubated for 30 min at 37 °C. The sample treated with PBS served as the negative control, and each concentration was set as three replicates. The alterations in fluorescence (excitation wavelength: 620 nm, emission wavelength: 670 nm) were monitored in real time over a period of 30 min using a multifunctional enzyme-labeling instrument.

Compound: CC1COc2c(N3CCN(C)CC3)c(F)cc3c(=O)c(C(=O)O)cn1c23 (centres unmarked) [ofloxacin, Ofloxacin]
- membrane penetration rate (PI-positive bacteria) (S. aureus ATCC43300 [1]; 1 h): 0.26%
- membrane penetration rate (PI-positive bacteria) (S. aureus ATCC43300 [1]; 1.5 h): 0.7%
- membrane penetration rate (PI-positive bacteria) (S. aureus ATCC43300 [1]; 2 h): 1.13%
- post-antibiotic effect (PAE) (S. aureus ATCC 43300 [2]): 0.77 h
- morphological changes of the bacteria by SEM (S. aureus ATCC43300 [3]): crumpled appearance with leakage of intracellular contents
- bacterial count at 6 h (S. aureus ATCC 43300 [4]): 2 log10 CFU/mL
- bacterial count at 24 h (S. aureus ATCC 43300 [4]): 4.15 log10 CFU/mL

Compound: nisin
- effect on membrane potential (S. aureus ATCC 43300 [5]): depolarization
